These results are taken from paper PMC5934486, “Pheromone Binding Protein EhipPBP1 Is Highly Enriched in the Male Antennae of the Seabuckthorn Carpenterworm and Is Binding to Sex Pheromone Components” (Frontiers in Physiology, 2018).

Experiment [1] concerns the target T1, recombinant EhipPBP1 (Eogystia hippophaecolus, UniProt A0A1B3P5J8). As to the kind of experiment: Fluorescence competitive binding assay with 1-NPN as probe. The note with it: for inhibition: 1-NPN and EhipPBP1 both at 2 μM, read-out: Highest combined rate (%); for inhibition / IC50: pH 7.4; for IC50: concentration of competitor causing 50% reduction of 1-NPN fluorescence, 1-NPN and EhipPBP1 at 2 μM. The method, then:
(§1) N-phenyl-1-naphthylamine (1-NPN) was selected for use as a selectively fluorescent probe to measure the affinity of ligand binding to recombinant EhipPBP1 ([Yin et al., 2012]; [Zhong et al., 2012]). Seven pheromone and analog compounds were a gift from Professor Zhang Jintong of Shanxi Agricultural University (Table 1) and were >97% pure. A fluorescence binding assay was performed on a multiscan Spectrum Molecular Device SpectraMax i3 (Thermo Scientific, Wilmington, DE, United States) with an excitation wavelength of 337 nm and recording of emission spectra between 380 and 520 nm. Parameter selection was such that the slit widths for both excitation and emission were 10 nm. Spectra were recorded using high-speed scanning. 2 μM solution of EhipPBP1 was prepared in 20 mM Tris-HCl buffer (pH 7.4), and the ligands were dissolved in chromatographically pure methanol as 1 mM stock solutions. The affinity of EhipPBP1 for the labeled probe was determined by adding aliquots of 1-NPN stock solution to give final concentrations of 2–20 μM. […] To determine dissociation constants, intensity values corresponding to maximum fluorescence emission were plotted against free ligand concentrations. Assuming that the protein was 100% active and that the stoichiometric ratio between protein and ligand was 1:1 at saturation, the bound ligand was determined from the fluorescence intensity values. EhipPBP1 binding with every component was replicated six times. The curves were then linearized using Scatchard plots to calculate K1-NPN values. Dissociation constants of the competitors (Ki) were calculated from the corresponding IC50 values by the following equation: Ki = [IC50]/(1 + [1–NPN]/K1-NPN), where [IC50] was the concentration of a competitor that caused a 50% reduction in the fluorescence intensity, [1–NPN] represented the free concentration of 1–NPN, and K1-NPN represented the dissociation constant of the complex of protein with 1–NPN ([Campanacci et al., 2001]).

In experiment [2] the target is T1, recombinant EhipPBP1. In words: Binding of the fluorescent probe 1-NPN to EhipPBP1 (Scatchard analysis). The note with it: Scatchard method; 2 μM EhipPBP1, 1-NPN 2–20 μM, pH 7.4; read-out: dissociation constant (K1-NPN). The method, then: as §1, with “EhipPBP1 binding with every component was replicated six times. The curves were then linearized using Scatchard plots to calculate K1-NPN values. Dissociation constants of the competitors (Ki) were calculated from the corresponding IC50 values by the following equation: Ki = [IC50]/(1 + [1–NPN]/K1-NPN), where [IC50] was the concentration of a competitor that caused a 50% reduction in the fluorescence intensity, [1–NPN] represented the free concentration of 1–NPN, and K1-NPN represented the dissociation constant of the complex of protein with 1–NPN ([Campanacci et al., 2001]).” left out

Where [3] appears, read: calculated Kd values in competitive binding assays with 1-NPN.
Where [4] appears, read: calculated from IC50 by Ki = [IC50]/(1 + [1-NPN]/K1-NPN), Table 1.

T1 sequence (A0A1B3P5J8 entry or part of it): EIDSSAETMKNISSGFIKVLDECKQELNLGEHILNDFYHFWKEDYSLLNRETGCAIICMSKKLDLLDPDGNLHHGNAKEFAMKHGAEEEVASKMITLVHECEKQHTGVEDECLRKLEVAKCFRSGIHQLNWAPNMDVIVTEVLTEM

`CCCCCCCCCCC=CCCO` [Z3-14:OH]: the inhibition at recombinant EhipPBP1 [1] (competitor 2–20 μM) amounted to 56.5%. The Kd was 2.36 ± 0.2 µM at recombinant EhipPBP1 [1] (setting [3]) and 2.36 ± 0.201 µM at recombinant EhipPBP1 [1] (setting [4]). Further, the IC50 at recombinant EhipPBP1 [1] is 3 µM.
Taken in the same sequence, the figures for `CCCC/C=C/CCCCCCCCOC(C)=O` [E9-14:Ac] were 53.1%, 6.3 ± 0.52 µM, 6.3 ± 0.521 µM and 8 µM.
As for `CCCCC=CCCCCCCCCOC(C)=O` [Z9-14:Ac], at recombinant EhipPBP1 [1] (competitor 2–20 μM), the inhibition came to 37.9%. Besides, the “binding in the range of test concentrations” value at recombinant EhipPBP1 [1] (competitor 2–20 μM, Kd could not be calculated) was less than 50%.
For the compound `CCCCCCCCCC/C=C\CCOC(C)=O` [Z3-14:Ac], on recombinant EhipPBP1 [1] (competitor 2–20 μM), the “binding to EhipPBP1 (result in words)” value is given as “No binding was detected”.
As for `c1ccc(Nc2cccc3ccccc23)cc1` [1-NPN, N-phenyl-1-naphthylamine], the Kd at recombinant EhipPBP1 [2] worked out at 3.7 ± 0.06 µM.
In the case of `CCCCCC/C=C\CCCCCCOC(C)=O` [Z7-14:Ac, (Z)-7-tetradecenyl acetate], on recombinant EhipPBP1 [1] (competitor 2–20 μM), the inhibition amounted to 86.4%. Also, the Kd on recombinant EhipPBP1 [1] (setting [3]) was 1.18 ± 0.01 µM; on recombinant EhipPBP1 [1] (setting [4]), 1.18 ± 0.012 µM. On recombinant EhipPBP1 [1], the half-inhibitory concentration (IC50) was determined as 1.5 µM.
On to `CCCCCCC=CCCCCCCO` [Z7-14:OH], for which, on recombinant EhipPBP1 [1] (competitor 2–20 μM), the inhibition was 62.3%. Besides, the Kd at recombinant EhipPBP1 [1] (setting [4]) was 3.15 ± 0.321 µM. For the same compound, the concentration for half-maximal inhibition (IC50) at recombinant EhipPBP1 [1] was 4 µM.
Turning to `CCCCCCCCCC/C=C/CCOC(C)=O` [E3-14:Ac, (E)-3-tetradecenyl acetate], at recombinant EhipPBP1 [1] (competitor 2–20 μM), the inhibition worked out at 89.4%. Moreover, the Kd was 1.58 ± 0.21 µM on recombinant EhipPBP1 [1] (setting [3]) and 1.57 ± 0.21 µM at recombinant EhipPBP1 [1] (setting [4]). Besides, the IC50 on recombinant EhipPBP1 [1] is 2 µM.
